How the values were obtained:
CYP3A4 = test system: CYP3A4; design: method as in earlier work; conditions: cited from earlier work
patients = test system: patients; design: method as in PMID 21639808; conditions: phase III trial; cited from earlier work
[1] = Phase I study: plasma pharmacokinetics (UPLC-MS/MS); conditions: for AUC(0-t) / AUC / Cmax / Tmax: human, plasma; for AUC(0-t): AUClast; for AUC(0-t) / AUC / Cmax: mean (SD); for AUC: AUCtau
Method: PK assessments were performed using a validated ultra-performance liquid chromatography-tandem mass spectrometry method.
All samples analyzed within established storage stability periods.

BRAF V600-mutant PTC = test system: BRAF V600-mutant PTC; design: method as in PMID 35658604; conditions: monotherapy; cited from earlier work
BRAF V600-mutant NSCLC = conditions: monotherapy; cited from earlier work
[2] = Multiple dose, Tunlametinib 9mg BID + vemurafenib 720mg BID
[3] = Multiple dose, Tunlametinib 9mg BID + vemurafenib 960mg BID
[4] = Multiple dose, Tunlametinib 12mg BID + vemurafenib 720mg BID
[5] = Multiple dose, Tunlametinib 12mg BID + vemurafenib 960mg BID
[6] = Multiple dose, Vemurafenib 720mg BID Total
[7] = Multiple dose, Vemurafenib 960mg Total
[8] = Single dose, Tunlametinib 9mg BID + vemurafenib 720mg BID
[9] = Single dose, Tunlametinib 9mg BID + vemurafenib 960mg BID
[10] = Single dose, Tunlametinib 12mg BID + vemurafenib 720mg BID
[11] = Single dose, Tunlametinib 12mg BID + vemurafenib 960mg BID
[12] = 720 mg, Multiple dose, Vemurafenib 720mg BID Total
[13] = 720 mg, Single dose, Vemurafenib 720mg BID Total
[14] = 960 mg, Multiple dose, Vemurafenib 960mg Total
[15] = 960 mg, Single dose, Vemurafenib 960mg Total
[16] = vemurafenib, multiple administrations, across doses

In the case of `CCCS(=O)(=O)Nc1ccc(F)c(C(=O)c2c[nH]c3ncc(-c4ccc(Cl)cc4)cc23)c1F` [Vemurafenib, vemurafenib], the Main metabolizing enzyme (CYP3A4) is given as “metabolized mainly by CYP3A4”, the Incidence of photosensitivity (patients) is given as 30% and the “Cavg, mean (SD)” value [1, 2] is given as 29792.81 (1092.82) ng/mL. For the same molecule, the “Fluctuation%, mean (SD)” value [1, 2] was 37.17 (4.45) %, the “RAUClast (accumulation ratio), mean (SD)” value [1, 2] was 11.76 (5.15) and the “RCmax (accumulation ratio), mean (SD)” value [1, 2] was 8.92 (3.76). The “Cavg, mean (SD)” value [1, 3] was 47113.74 (NC) ng/mL, the “Fluctuation%, mean (SD)” value [1, 3] was 19.95 (NC) % and the “RAUClast (accumulation ratio), mean (SD)” value [1, 3] was 36.26 (58.5). For the same molecule, the “RCmax (accumulation ratio), mean (SD)” value [1, 3] was 16.01 (16.13), the “Cavg, mean (SD)” value [1, 4] was 34081.99 (20393.59) ng/mL and the “Fluctuation%, mean (SD)” value [1, 4] was 36.48 (16.11) %. For the same molecule, the “RAUClast (accumulation ratio), mean (SD)” value [1, 4] was 10.61 (4.88), the “RAUCtau (accumulation ratio), mean (SD)” value [1, 4] was 13.29 (4.87) and the “RCmax (accumulation ratio), mean (SD)” value [1, 4] was 8.54 (4.03). For the same molecule, the “Cavg, mean (SD)” value [1, 5] was 28324.83 (NC) ng/mL, the “Fluctuation%, mean (SD)” value [1, 5] was 25.42 (NC) % and the “RAUClast (accumulation ratio), mean (SD)” value [1, 5] was 10.75 (2.55). The “RCmax (accumulation ratio), mean (SD)” value [1, 5] was 8.23 (1.79), the “Cavg, mean (SD)” value [1, 6] was 32652.26 (15958.81) ng/mL and the “Fluctuation%, mean (SD)” value [1, 6] was 36.71 (12.64) %. The “RAUClast (accumulation ratio), mean (SD)” value [1, 6] was 11.10 (4.84), the “RAUCtau (accumulation ratio), mean (SD)” value [1, 6] was 13.29 (4.87) and the “RCmax (accumulation ratio), mean (SD)” value [1, 6] was 8.70 (3.77). For the same molecule, the “Cavg, mean (SD)” value [1, 7] was 45227.97 (17802.57) ng/mL, the “Fluctuation%, mean (SD)” value [1, 7] was 29.65 (16.23) % and the “RAUClast (accumulation ratio), mean (SD)” value [1, 7] was 23.92 (39.19). The “RAUCtau (accumulation ratio), mean (SD)” value [1, 7] was 14.07 (NC), the “RCmax (accumulation ratio), mean (SD)” value [1, 7] was 13.22 (11.54) and the “AUC_%Extrap, mean (SD)” value [1, 8] was 56.66 (6.57) %. For the same molecule, the “AUC_%Extrap, mean (SD)” value [1, 9] was 57.98 (NC) %, the “AUC_%Extrap, mean (SD)” value [1, 10] was 61.30 (6.78) % and the “AUC_%Extrap, mean (SD)” value [1, 11] was 64.58 (NC) %. The “AUC_%Extrap, mean (SD)” value ([1]; Single dose, Vemurafenib 720mg BID Total) was 60.37 (6.66) %, the “AUC_%Extrap, mean (SD)” value ([1]; Single dose, Vemurafenib 960mg Total) was 61.29 (11.94) % and the AUC(0-t) [1, 12] was 372 µg·h/mL. It also gave an AUC(0-t) [1, 13] of 39.3 µg·h/mL, an AUC [1, 12] of 392 µg·h/mL and an AUC [1, 13] of 41 µg·h/mL. For the same molecule, the Cmax [1, 12] was 36600 ng/mL, the Cmax [1, 13] was 4890 ng/mL and the Tmax ([1]; 720 mg, Tmax, median (range), Multiple dose, Vemurafenib 720mg BID Total) was 2.07 h. The Tmax ([1]; 720 mg, Tmax, median (range), Single dose, Vemurafenib 720mg BID Total) was 4 h, the AUC(0-t) [1, 14] was 503 µg·h/mL and the AUC(0-t) [1, 15] was 50.5 µg·h/mL. It also gave an AUC [1, 14] of 543 µg·h/mL, an AUC [1, 15] of 61.2 µg·h/mL and a Cmax [1, 14] of 48300 ng/mL. For the same molecule, the Cmax [1, 15] was 6220 ng/mL, the Tmax ([1]; 960 mg, Tmax, median (range), Multiple dose, Vemurafenib 960mg Total) was 3.99 h and the Tmax ([1]; 960 mg, Tmax, median (range), Single dose, Vemurafenib 960mg Total) was 4.01 h. The AUC(0-t) [1, 2] was 376 µg·h/mL, the AUC(0-t) [1, 3] was 530 µg·h/mL and the AUC(0-t) [1, 4] was 379 µg·h/mL. It also gave an AUC(0-t) [1, 5] of 456 µg·h/mL, an AUC(0-t) [1, 8] of 45.8 µg·h/mL and an AUC(0-t) [1, 9] of 65.3 µg·h/mL. The AUC(0-t) [1, 10] was 37.2 µg·h/mL, the AUC(0-t) [1, 11] was 47.1 µg·h/mL and the AUC [1, 2] was 358 µg·h/mL. For the same molecule, the AUC [1, 3] was 565 µg·h/mL, the AUC [1, 4] was 409 µg·h/mL and the AUC [1, 5] was 340 µg·h/mL. The AUC [1, 8] was 55.2 µg·h/mL, the AUC [1, 9] was 118 µg·h/mL and the AUC [1, 10] was 38.2 µg·h/mL. The AUC [1, 11] was 37.7 µg·h/mL, the Cmax [1, 2] was 37400 ng/mL and the Cmax [1, 3] was 49200 ng/mL. The Cmax [1, 4] was 36800 ng/mL, the Cmax [1, 5] was 42800 ng/mL and the Cmax [1, 8] was 5710 ng/mL. It also gave a Cmax [1, 9] of 7360 ng/mL, a Cmax [1, 10] of 4610 ng/mL and a Cmax [1, 11] of 5710 ng/mL. It also gave a Tmax ([1]; Tmax, median (range), Multiple dose, Tunlametinib 9mg BID + vemurafenib 720mg BID) of 3.92 h, a Tmax ([1]; Tmax, median (range), Multiple dose, Tunlametinib 9mg BID + vemurafenib 960mg BID) of 4.07 h and a Tmax ([1]; Tmax, median (range), Multiple dose, Tunlametinib 12mg BID + vemurafenib 720mg BID) of 1.93 h. For the same molecule, the Tmax ([1]; Tmax, median (range), Multiple dose, Tunlametinib 12mg BID + vemurafenib 960mg BID) was 3.95 h, the Tmax ([1]; Tmax, median (range), Single dose, Tunlametinib 9mg BID + vemurafenib 720mg BID) was 4 h and the Tmax ([1]; Tmax, median (range), Single dose, Tunlametinib 9mg BID + vemurafenib 960mg BID) was 3.96 h. It also gave a Tmax ([1]; Tmax, median (range), Single dose, Tunlametinib 12mg BID + vemurafenib 720mg BID) of 4 h, a Tmax ([1]; Tmax, median (range), Single dose, Tunlametinib 12mg BID + vemurafenib 960mg BID) of 4.07 h and a Tmax ([1]; oral, Median Tmax, vemurafenib, single-dose) of ~4 h. The “Average accumulation ratio based on AUClast” value [1, 16] was 10.6 to 36.3, the “Average accumulation ratio based on AUCtau” value [1, 16] was 13.3 to 14.1 and the “Average accumulation ratio based on Cmax” value [1, 16] was 8.2 to 16.0.
For `CC(C)(C)c1nc(-c2cccc(NS(=O)(=O)c3c(F)cccc3F)c2F)c(-c2ccnc(N)n2)s1` [dabrafenib], the ORR (BRAF V600-mutant PTC) is listed as 35%, the “Median PFS” value (BRAF V600-mutant NSCLC) is listed as 5.5 months and the ORR (BRAF V600-mutant NSCLC) is listed as 33%.

— paper PMC11167782, “Tunlametinib (HL-085) plus vemurafenib in patients with advanced BRAF V600-mutant solid tumors: an open-label, single-arm, multicenter, phase I study” (Experimental Hematology & Oncology, 2024)
